GI50 data for eleven compounds are collected here from patent publication US12673945B2, “3-((8-((1H-pyrazol-4-yl)amino)imidazo[1,2-a]pyridin-3-yl)ethinyl)-n-phenylbenzamide derivative, method for preparing same, and pharmaceutical composition containing same as active ingredient for prevention or treatment of cancer” (DAEGU-GYEONGBUK MEDICAL INNOVATION FOUNDATION, priority 2020, dated 2026).

Some results are limits rather than exact numbers.

Holding throughout (type): cell-based
One experiment concerns T315I-Bcr-Abl (Ba/F3). Briefly: Ba/F3 cell proliferation inhibition. Particulars: BaF3; 72 hours, Cell Counting Kit-8. On the procedure: (§1) […] lymphocyte cells, Parental (Ba/F3) and T315I-Bcr-Abl (Ba/F3) were seeded in 96-well plates at the density of 1×10^4/90 μL/well. A culture solution containing 9 concentrations (0.015 to 100 μM) of each example compound serially diluted in 3 folds or DMSO (control) were added to the plate ([…]) to a final concentration of 0 to 10 μM. The plate was incubated in a 37° C. CO2 incubator for 72 hours.
(§2) After incubation for 72 hours, the plate treated with the compound was treated with Cell Counting Kit-8 (Dojindo Molecular Technologies, Inc) solution at the concentration of 10 μL/well, and then mixed well. Then, the plate was incubated in a CO2 incubator at 37° C. for 2 hours, and absorbance at 450 nm was measured with a microplate reader. Data were expressed as percentage compared to vehicle treated cells and GI50 values were calculated using GraphPad Prism 5.0 (GraphPad software Inc., San Diego) […].

Another experiment relates to Parental (Ba/F3). Briefly: Ba/F3 cell proliferation inhibition. The settings on record: BaF3; 72 hours, Cell Counting Kit-8. The protocol:
as §1, §2

The subject of another experiment is T315I-TCCS cells. Briefly: human CML cell proliferation inhibition. The settings on record: 72 hours, Cell Counting Kit-8. The protocol: (§3) In order to evaluate the therapeutic effect of the compound according to the present invention on chronic myelogenous leukemia (CML), the following experiment was performed, and the results are shown in Table 6 below. Inhibitory activity to Bcr-Abl kinase was evaluated through the experiment using TCCS and KOPM28 cells, and inhibitory activity to T315I-Bcr-Abl kinase was evaluated through the experiment using T315I-TCCS and T315I-KOPM28 cells.
(§4) Human chronic myelogenous leukemia (CML) cells used in the experiment were TCCS, T315I-TCCS, KOPM28 and T315I-KOPM28, and the four types of cells were provided by University of Yamanashi.
(§5) Four types of human CML cells were each seeded in 96-well plates at the density of 1×10^4/90 μL/well. A culture solution containing 9 concentrations (0.000256 to 100 μM) of each example compound serially diluted in 5 folds or DMSO (control) were added to the plate (10 μL/well) to a final concentration of 0 to 10 μM. The plate was incubated in a 37° C. CO2 incubator for 72 hours.
(§6) After incubation for 72 hours, the plate treated with the compound was treated with Cell Counting Kit-8 (Dojindo Molecular Technologies, Inc) solution at the concentration of 10 μL/well, and then mixed well. Then, the plate was incubated in a CO2 incubator at 37° C. for 2 hours, and absorbance at 450 nm was measured with a microplate reader. Data were expressed as percentage compared to vehicle treated cells and GI50 values were calculated using GraphPad Prism 8.0 (GraphPad software Inc., San Diego).

For another experiment, the system named is T315I-KOPM28 cells. The experiment in a line: human CML cell proliferation inhibition. The settings on record: 72 hours, Cell Counting Kit-8. The protocol:
as §3, §4, §5, §6

In another experiment the test system is KOPM28 cells. The experiment in a line: human CML cell proliferation inhibition. The settings on record: 72 hours, Cell Counting Kit-8. The protocol:
as §3, §4, §5, §6

The test system of the next experiment is TCCS cells. Briefly: human CML cell proliferation inhibition. Particulars: 72 hours, Cell Counting Kit-8. On the procedure:
as §3, §4, §5, §6

Consider `Cc1cc(F)c(C(=O)Nc2cc(N3CCN(C)CC3)cc(C(C)(C)C#N)c2)cc1C#Cc1cnc2c(Nc3cnn(C)c3)cccn12` [Example 20, N-(3-(2-cyanopropan-2-yl)-5-(4-methylpiperazin-1-yl)phenyl)-2-fluoro-4-methyl-5-((8-((1-methyl-1H-pyrazol-4-yl)amino)imidazo[1,2-a]pyridin-3-yl)ethynyl)benzamide], for which the GI50 was 50 to 500 nM with T315I-Bcr-Abl (Ba/F3); 500 to 5000 nM in the experiment with Parental (Ba/F3); 100 nM in the experiment on T315I-TCCS cells; above 100 nM with T315I-KOPM28 cells; below 10 nM in the experiment with KOPM28 cells; below 10 nM in the experiment with TCCS cells.

`Cc1cn(-c2cc(NC(=O)c3cc(C#Cc4cnc5c(Nc6cn[nH]c6)cccn45)c(C)cc3F)cc(C(F)(F)F)c2)cn1` [Example 95, 5-((8-((1H-pyrazol-4-yl)amino)imidazo[1,2-a]pyridin-3-yl)ethynyl)-2-fluoro-4-methyl-N-(3-(4-methyl-1H-imidazol-1-yl)-5-(trifluoromethyl)phenyl)benzamide]: the GI50 in the experiment on T315I-Bcr-Abl (Ba/F3) was below 50 nM; in the experiment with Parental (Ba/F3) it was above 5000 nM; in the experiment with T315I-TCCS cells it was 100 nM; in the experiment on T315I-KOPM28 cells it was 100 nM; in the experiment on KOPM28 cells, below 10 nM; with TCCS cells, below 10 nM.

Regarding `Cc1cc(F)c(C(=O)Nc2cc(CN3CCC(N(C)C)C3)cc(C(C)(C)C#N)c2)cc1C#Cc1cnc2c(Nc3cn[nH]c3)cccn12` (stereo not drawn) [Example 85, 5-((8-((1H-pyrazol-4-yl)amino)imidazo[1,2-a]pyridin-3-yl)ethynyl)-N-(3-(2-cyanopropan-2-yl)-5-((3-(dimethylamino)pyrrolidin-1-yl)methyl)phenyl)-2-fluoro-4-methylbenzamide], the GI50 in the experiment with T315I-Bcr-Abl (Ba/F3) is 50 to 500 nM; with Parental (Ba/F3) it was 500 to 5000 nM; in the experiment on T315I-TCCS cells, 100 nM; with T315I-KOPM28 cells it was above 100 nM; in the experiment on KOPM28 cells it was below 10 nM; in the experiment with TCCS cells, below 10 nM.

For `Cc1cc(F)c(C(=O)Nc2ccc(CN3CCN(C)CC3)c(C(F)(F)F)c2)cc1C#Cc1cnc2c(Nc3cn[nH]c3)cccn12` [Example 109, 5-((8-((1H-pyrazol-4-yl)amino)imidazo[1,2-a]pyridin-3-yl)ethynyl)-2-fluoro-4-methyl-N-(4-((4-methylpiperazin-1-yl)methyl)-3-(trifluoromethyl)phenyl)benzamide], the GI50 is below 50 nM in the experiment with T315I-Bcr-Abl (Ba/F3); 500 to 5000 nM in the experiment with Parental (Ba/F3); below 10 nM in the experiment with T315I-TCCS cells; below 10 nM in the experiment on T315I-KOPM28 cells; below 10 nM in the experiment on KOPM28 cells; below 10 nM with TCCS cells.

As for `Cc1cn(-c2cc(NC(=O)c3cc(C#Cc4cnc5c(Nc6cnn(C)c6)cccn45)c(C)cc3Cl)cc(C(F)(F)F)c2)cn1` [Example 14, 2-chloro-4-methyl-N-(3-(4-methyl-1H-imidazol-1-yl)-5-(trifluoromethyl)phenyl)-5-((8-((1-methyl-1H-pyrazol-4-yl)amino)imidazo[1,2-a]pyridin-3-yl)ethynyl)benzamide], the GI50 is below 50 nM in the experiment on T315I-Bcr-Abl (Ba/F3); above 5000 nM in the experiment on Parental (Ba/F3); 100 nM in the experiment on T315I-TCCS cells; 100 nM in the experiment with T315I-KOPM28 cells; below 10 nM in the experiment with KOPM28 cells; below 10 nM in the experiment on TCCS cells.

For `Cc1cc(F)c(C(=O)Nc2cc(CN3CCN(S(C)(=O)=O)CC3)cc(C(C)(C)C#N)c2)cc1C#Cc1cnc2c(Nc3cn[nH]c3)cccn12` [Example 87, 5-((8-((1H-pyrazol-4-yl)amino)imidazo[1,2-a]pyridin-3-yl)ethynyl)-N-(3-(2-cyanopropan-2-yl)-5-((4-(methylsulfonyl)piperazin-1-yl)methyl)phenyl)-2-fluoro-4-methylbenzamide], the GI50 is 50 to 500 nM with T315I-Bcr-Abl (Ba/F3); above 5000 nM with Parental (Ba/F3); 100 nM in the experiment with T315I-TCCS cells; above 100 nM with T315I-KOPM28 cells; below 10 nM in the experiment with KOPM28 cells; below 10 nM in the experiment on TCCS cells.

As for `Cc1cc(F)c(C(=O)Nc2ccc(CN3CCN(S(C)(=O)=O)CC3)c(C(F)(F)F)c2)cc1C#Cc1cnc2c(Nc3cnn(C)c3)cccn12` [Example 60, 2-fluoro-4-methyl-5-((8-((1-methyl-1H-pyrazol-4-yl)amino)imidazo[1,2-a]pyridin-3-yl)ethynyl)-N-(4-((4-(methylsulfonyl)piperazin-1-yl)methyl)-3-(trifluoromethyl)phenyl)benzamide], the GI50 is below 50 nM with T315I-Bcr-Abl (Ba/F3); 500 to 5000 nM in the experiment with Parental (Ba/F3); 100 nM in the experiment with T315I-TCCS cells; above 100 nM in the experiment with T315I-KOPM28 cells; 100 nM in the experiment with KOPM28 cells; below 10 nM in the experiment with TCCS cells.

In the case of `Cc1cc(F)c(C(=O)Nc2ccc(CN3CCN(S(C)(=O)=O)CC3)c(C(F)(F)F)c2)cc1C#Cc1cnc2c(Nc3cn[nH]c3)cccn12` [Example 113, 5-((8-((1H-pyrazol-4-yl)amino)imidazo[1,2-a]pyridin-3-yl)ethynyl)-2-fluoro-4-methyl-N-(4-((4-(methylsulfonyl)piperazin-1-yl)methyl)-3-(trifluoromethyl)phenyl)benzamide], the GI50 in the experiment with T315I-Bcr-Abl (Ba/F3) was 500 to 5000 nM; in the experiment with Parental (Ba/F3), above 5000 nM; in the experiment with T315I-TCCS cells, above 100 nM; with T315I-KOPM28 cells it was above 100 nM; in the experiment on KOPM28 cells, below 10 nM; in the experiment with TCCS cells, below 10 nM.

As to `Cc1ccc(C(=O)Nc2cc(CN3CCN(CCO)CC3)cc(C(C)(C)C#N)c2)c(F)c1C#Cc1cnc2c(Nc3cnn(C)c3)cccn12` [Example 12, N-(3-(2-cyanopropan-2-yl)-5-((4-(2-hydroxyethyl)piperazin-1-yl)methyl)phenyl)-2-fluoro-4-methyl-3-((8-((1-methyl-1H-pyrazol-4-yl)amino)imidazo[1,2-a]pyridin-3-yl)ethynyl)benzamide], the GI50 is 50 to 500 nM in the experiment with T315I-Bcr-Abl (Ba/F3); above 5000 nM in the experiment on Parental (Ba/F3); 100 nM in the experiment with T315I-TCCS cells; above 100 nM with T315I-KOPM28 cells; below 10 nM with KOPM28 cells; below 10 nM in the experiment with TCCS cells.

As to `Cc1cc(F)c(C(=O)Nc2ccc(CN3CCN(CCO)CC3)c(C(F)(F)F)c2)cc1C#Cc1cnc2c(Nc3cn[nH]c3)cccn12` [Example 111, 5-((8-((1H-pyrazol-4-yl)amino)imidazo[1,2-a]pyridin-3-yl)ethynyl)-2-fluoro-N-(4-((4-(2-hydroxyethyl)piperazin-1-yl)methyl)-3-(trifluoromethyl)phenyl)-4-methylbenzamide], the GI50 was 50 to 500 nM in the experiment with T315I-Bcr-Abl (Ba/F3); 500 to 5000 nM with Parental (Ba/F3); below 10 nM in the experiment with T315I-TCCS cells; below 10 nM with T315I-KOPM28 cells; below 10 nM with KOPM28 cells; below 10 nM with TCCS cells.

As for `Cc1cc(F)c(C(=O)Nc2ccc(CN3CCN(S(C)(=O)=O)CC3)c(C(C)(C)C#N)c2)cc1C#Cc1cnc2c(Nc3cnn(C)c3)cccn12` [Example 45, N-(3-(2-cyanopropan-2-yl)-4-((4-(methylsulfonyl)piperazin-1-yl)methyl)phenyl)-2-fluoro-4-methyl-5-((8-((1-methyl-1H-pyrazol-4-yl)amino)imidazo[1,2-a]pyridin-3-yl)ethynyl)benzamide], the GI50 is 500 to 5000 nM in the experiment on T315I-Bcr-Abl (Ba/F3); above 5000 nM with Parental (Ba/F3); above 100 nM with T315I-TCCS cells; above 100 nM in the experiment with T315I-KOPM28 cells; below 10 nM in the experiment on KOPM28 cells; below 10 nM with TCCS cells.
